We go through 2 compounds from patent US20110318470A1, “Method For Improving Plant Health” (priority 2008, published 2011).

This test has as its system Wheat plants (Trificum aestivum cv. Monopol). Description: Growth-promoting effect on wheat plants after foliar treatment. Format: in vivo. The following applies: for Shoot-DW / Shoot-FW: 750 l/ha, greenhouse, mean of six pots with ten plants; for Shoot-DW / Shoot-FW / Shoot-DW % of control / Shoot-FW % of control: harvest after 18 days; for Shoot-DW % of control / Shoot-FW % of control: control = 100.0; for plant health (higher yields and increased plant vigor based on fresh- and dry weights) / tillering: wheat, foliar treatment, 15 and 7.5 g ai/ha. As to the method: Wheat plants (Trificum aestivum cv. Monopol) were grown in soil with ten plants per pot (13 cm diameter) under greenhouse conditions. Plants at the 2nd leaf stage were sprayed with aqueous solutions of formulated compounds: • Compound 1=4-Fluoro-N-[2-(2-fluoro-benzoylamino)-1-methylcarbamoyl-ethyl]-2-trifluoromethyl-benzamide • Compound 2=4-Fluoro-N-[2-(3-fluoro-2-methyl-phenyl)-2-hydroxy-1-methylcarbamoyl-ethyl]-2-trifluoromethyl-benzamide The compounds were applied at two different dose rates (15 and 7.5 g ai/ha) and the spray volume was 750 l/ha. Six replicate pots with ten plants each were used per treatment. After 18 days plants were harvested and growth parameters were determined. The recorded parameters were fresh weight (FW) and dry weight (DW). Mean values of results, standard deviation (SD) and percentage to control were calculated.

Setting [1] is: 7.5 g ai/ha foliar spray at 2nd leaf stage.
[2] abbreviates: 15 g ai/ha foliar spray at 2nd leaf stage.

As to `CNC(=O)C(CNC(=O)c1ccccc1F)NC(=O)c1ccc(F)cc1C(F)(F)F` (centres unmarked) [Compound 1, 4-Fluoro-N-[2-(2-fluoro-benzoylamino)-1-methylcarbamoyl-ethyl]-2-trifluoromethyl-benzamide], the “plant health (higher yields and increased plant vigor based on fresh- and dry weights)” value is “strongly increase the plant health”; the tillering entry is reported as “increase in tillering”. Under setting [1], this compound yielded a Shoot-DW of 3.8 g and a Shoot-FW of 40.6 g. For the setting “7.5 g ai/ha foliar spray”, the “Shoot-DW % of control” value was 134.9 % of control and the “Shoot-FW % of control” value is listed as 132.7 % of control. Besides, under setting [2], the Shoot-DW is 3.7 g and the Shoot-FW is 38.8 g. Further, under “15 g ai/ha foliar spray”, the “Shoot-DW % of control” value is given as 131.0 % of control and the “Shoot-FW % of control” value is listed as 126.9 % of control.

With `CNC(=O)C(NC(=O)c1ccc(F)cc1C(F)(F)F)C(O)c1cccc(F)c1C` (centres unmarked) [Compound 2, 4-Fluoro-N-[2-(3-fluoro-2-methyl-phenyl)-2-hydroxy-1-methylcarbamoyl-ethyl]-2-trifluoromethyl-benzamide], the “plant health (higher yields and increased plant vigor based on fresh- and dry weights)” value was “strongly increase the plant health”; the tillering entry was “increase in tillering”. Under setting [1], the Shoot-DW is given as 3.9 g and the Shoot-FW came to 40.2 g. For the same compound, under “7.5 g ai/ha foliar spray”, the “Shoot-DW % of control” value is given as 138.6 % of control and the “Shoot-FW % of control” value is reported as 131.4 % of control. Under setting [2], this compound displayed a Shoot-DW of 3.9 g and a Shoot-FW of 40.6 g. For the setting “15 g ai/ha foliar spray”, the “Shoot-DW % of control” value is given as 138.2 % of control and the “Shoot-FW % of control” value was 132.8 % of control.
